Measurements from PMC3035770 (Biochemistry, 2011).
Where two headings read alike, the source gives them in different places.

Legend:
[1] = target: T1, PKR (double-stranded RNA-activated protein kinase) (Homo sapiens, UniProt P19525); assay: radiolabeled ATP binding, ZipTip-C4 separation
[2] = target: bovine serum albumin (BSA) (Bos taurus, UniProt P02769); assay: fluorescence polarization, direct titration; format: binding
[3] = target: T1, PKR (double-stranded RNA-activated protein kinase); assay: fluorescence polarization, direct titration; format: binding
[4] = target: PKR (Homo sapiens) (UniProt P19525); details: cited from earlier work
[5] = target: PKR (Homo sapiens) (UniProt P19525); details: cited from earlier work; remark: listed apart in the source
[6] = target: PKR (Homo sapiens) (UniProt P19525); details: cited from earlier work; remark: listed apart in the source

Chain of bovine serum albumin (BSA) (P02769 25-607): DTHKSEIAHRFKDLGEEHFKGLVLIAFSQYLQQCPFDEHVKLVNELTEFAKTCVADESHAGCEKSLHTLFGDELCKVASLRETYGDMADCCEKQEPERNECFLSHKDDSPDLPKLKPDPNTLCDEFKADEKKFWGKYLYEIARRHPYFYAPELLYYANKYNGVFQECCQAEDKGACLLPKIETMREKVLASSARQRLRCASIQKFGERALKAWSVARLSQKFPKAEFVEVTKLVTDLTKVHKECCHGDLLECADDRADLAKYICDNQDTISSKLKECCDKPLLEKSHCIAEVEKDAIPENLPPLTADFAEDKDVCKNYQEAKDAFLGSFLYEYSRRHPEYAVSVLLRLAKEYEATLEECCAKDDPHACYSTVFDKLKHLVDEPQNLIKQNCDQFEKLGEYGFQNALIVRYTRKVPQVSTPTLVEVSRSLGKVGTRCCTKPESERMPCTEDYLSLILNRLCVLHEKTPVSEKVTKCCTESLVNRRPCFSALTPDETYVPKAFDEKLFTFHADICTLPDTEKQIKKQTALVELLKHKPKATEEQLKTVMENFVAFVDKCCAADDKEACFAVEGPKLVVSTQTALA

## Nc1ncnc2c1ncn2[C@@H]1O[C@H](COP(=O)(O)OP(=O)(O)OP(=O)(O)O)[C@@H](O)[C@H]1O [ATP]
[1]
  % bound: 16.61 % bound

## CC1=CC(C)=[N+]2C1=Cc1ccc(CCCCCCCCCCCCCCCC(=O)O)n1[B-]2(F)F [Bodipy-C16, 4,4-difluoro-5,7-dimethyl-4-bora-3a,4a-diaza-s-indacene-3-hexadecanoic acid]
[2]
  Kd: 0.0292 ± 0.00185 µM
[3]
  Kd: 0.0232 ± 0.00128 µM

## PKR (from UniProt P19525)
[4]
  Kd: 75 µM
[5]
  Kd: 500 µM
[6]
  Kd: 20 µM
